Results as given in patent USRE38257E1, “Piperdine derivatives and hypotensives containing the same” (Ajinomoto Co., Inc., priority 1988, dated 2003).

Tested on: male spontaneously hypertensive rats
Experiment: Decrease in systolic blood pressure in spontaneously hypertensive rats after intravenous bolus injection, indirect (tail-cuff) method
Type: in vivo, rat
Conditions: for Decrease in systolic blood pressure (mmHg) time after administration (hour) 0.5: 0.5 hour after administration; for Decrease in systolic blood pressure (mmHg) time after administration (hour) 4: 4 hours after administration
Procedure: As test animals, four male spontaneously hypertensive rats (weight 400 to 440 g) that were sufficiently adapted for feeding and in which hypertension was confirmed were used.
Physiological saline aqueous solution containing 2.5% Nicolle and 2.5% ethanol of sample was intravenously administered by bolus injection at a dose of 1 ml per 1 kg of body weight. Systolic blood pressure after administration was measured by the indirect (tail-cuff) method.

Question: Which “Decrease in systolic blood pressure (mmHg) time after administration (hour) 0.5” value (shortened to “Decrease in systolic blood pressure … (hour) 0.5”) (dose 10 mg/kg i.v. bolus) does the source give for `COc1ccc(C(C#N)(CCCN2CCC(=C3c4ccccc4C=Cc4ccccc43)CC2)C(C)C)cc1OC.Cl` (centres unmarked) [Example 31, 5-(4-(5H-Dibenzo[a,d]cyclohepten-5-ylidene)-1-piperidinyl)-2-(3,4-dimethoxyphenyl)-2-isopropylvaleronitrile hydrochloride] here?
Answer: −61 mmHg

Question: What about the “Decrease in systolic blood pressure (mmHg) time after administration (hour) 4” value (“Decrease in systolic blood pressure … (hour) 4” below) (dose 10 mg/kg i.v. bolus) of the same compound?
Answer: −11 mmHg

Question: For `C1=Cc2ccccc2C(=C2CCN(CCCOC3CCCCC3)CC2)c2ccccc21.Cl` [Example 218, Cyclohexyl 3-(4-(5H-Dibenzo[a,d]cyclohpetan-5-ylidene)-1-piperidinyl)propylether hydrochloride], which “Decrease in systolic blood pressure … (hour) 0.5” value (dose 10 mg/kg i.v. bolus) is on record?
Answer: −97 mmHg

Question: And the “Decrease in systolic blood pressure … (hour) 4” value (dose 10 mg/kg i.v. bolus)?
Answer: −11 mmHg

Question: Which results are given for `Cc1ccc(C(=O)CCCN2CCC(=C3c4ccccc4C=Cc4ccccc43)CC2)cc1C.Cl` [Example 198]?
Answer: Decrease in systolic blood pressure (mmHg) time after administration (hour) 0.5 (dose 10 mg/kg i.v. bolus): −124 mmHg; Decrease in systolic blood pressure (mmHg) time after administration (hour) 4 (dose 10 mg/kg i.v. bolus): −25 mmHg

Question: `COc1ccc(CCC(=O)N2CCC(=C3c4ccccc4C=Cc4ccccc43)CC2)cc1OC` [Example 202, 4-(5H-Dibenzo[a,d]cyclohepten-5-ylidene)-1-(3-(3′,4′-dimethoxyphenyl)propanoyl)piperidine] was tested. Which “Decrease in systolic blood pressure … (hour) 0.5” value (dose 10 mg/kg i.v. bolus) did it give?
Answer: −54 mmHg

Question: What about the “Decrease in systolic blood pressure … (hour) 4” value (dose 10 mg/kg i.v. bolus) of the same compound?
Answer: −16 mmHg

Question: Which results are given for `Cl.O=C(CCN1CCC(=C2c3ccccc3C=Cc3ccccc32)CC1)OC1CCCCC1` [Example 236, Cyclohexyl 3-(4-(5H-Dibenzo[a,d]cyclohepten-5-ylidene)-1-piperidinyl)propionate hydrochloride]?
Answer: Decrease in systolic blood pressure (mmHg) time after administration (hour) 0.5 (dose 10 mg/kg i.v. bolus): −10 mmHg; Decrease in systolic blood pressure (mmHg) time after administration (hour) 4 (dose 10 mg/kg i.v. bolus): −15 mmHg

Question: How did the “Decrease in systolic blood pressure … (hour) 0.5” value (dose 10 mg/kg i.v. bolus) turn out when `Cl.O=[N+]([O-])c1ccc2c(c1)CC(CN1CCC(=C3c4ccccc4C=Cc4ccccc43)CC1)C2` (centres unmarked) [Example 332, 2-(4-(5H-Dibenzo[a,d]cyclohepten-5-ylidene)-1-piperidinyl)methyl-5′-nitroindan hydrochloride] was run?
Answer: −111 mmHg

Question: What about the “Decrease in systolic blood pressure … (hour) 4” value (dose 10 mg/kg i.v. bolus) of the same compound?
Answer: −57 mmHg

Question: Which “Decrease in systolic blood pressure … (hour) 0.5” value (dose 3 mg/kg i.v. bolus) does the source give for `COc1ccc(C(=O)CCCN2CCC(=C3c4ccccc4CSc4ccccc43)CC2)cc1OC.Cl` [Example 229, 4-(4-(5H-Dibenzo[a,d]thiepin-5-ylidene)-1-piperidinyl)-3+,4+-dimethoxybutyrophenone hydrochloride] here?
Answer: −77 mmHg

Question: What about the “Decrease in systolic blood pressure … (hour) 4” value (dose 3 mg/kg i.v. bolus) of the same compound?
Answer: −14 mmHg

Question: With `COCC(=O)Oc1ccc(C=CCN2CCC(=C3c4ccccc4C=Cc4ccccc43)CC2)cc1.Cl` [Example 383, 4-(5H-Dibenzo[a,d]cyclohepten-5-ylidene)-1-(4-(2-methoxyacetoxy)cinnamyl)piperidine hydrochloride] as the compound, how does the “Decrease in systolic blood pressure … (hour) 0.5” value (dose 3 mg/kg i.v. bolus) read?
Answer: −112 mmHg

Question: What about the “Decrease in systolic blood pressure … (hour) 4” value (dose 3 mg/kg i.v. bolus) of the same compound?
Answer: −86 mmHg

Question: How did the “Decrease in systolic blood pressure … (hour) 0.5” value (dose 3 mg/kg i.v. bolus) turn out when `COc1ccccc1C=CCN1CCC(=C2c3ccccc3C=Cc3ccccc32)CC1.Cl` [Example 347, 4-(5H-Dibenzo[a,d]cyclohepten-5-ylidene)-1-(2-methoxycinnamyl)piperidine hydrochloride] was run?
Answer: −116 mmHg

Question: And the “Decrease in systolic blood pressure … (hour) 4” value (dose 3 mg/kg i.v. bolus)?
Answer: −53 mmHg

Question: `COc1ccc(CN2CCC(=C3c4ccccc4C=Cc4ccccc43)CC2)cc1.Cl` [Example 119, 4-(5H-Dibenzo[a,d]cyclohepten-5-ylidene)-1-(4-methoxybenzyl)piperidine hydrochloride] was tested. Which “Decrease in systolic blood pressure … (hour) 0.5” value (dose 10 mg/kg i.v. bolus) did it give?
Answer: −34 mmHg

Question: And the “Decrease in systolic blood pressure … (hour) 4” value (dose 10 mg/kg i.v. bolus)?
Answer: −5 mmHg

Question: Which “Decrease in systolic blood pressure … (hour) 0.5” value (dose 3 mg/kg i.v. bolus) does the source give for `Cl.Nc1ccccc1C=CCN1CCC(=C2c3ccccc3C=Cc3ccccc32)CC1` [Example 303, 1-(2-Aminocinnamyl)-4-(5H-dibenzo[a,d]cyclohepten-5-ylidene)-1-piperidine hydrochloride] here?
Answer: −90 mmHg

Question: What about the “Decrease in systolic blood pressure … (hour) 4” value (dose 3 mg/kg i.v. bolus) of the same compound?
Answer: −19 mmHg

Question: What does the source list for `C1=Cc2ccccc2C(=C2CCN(CC3CCc4ccccc4C3)CC2)c2ccccc21` (centres unmarked) [Example 225, 4-(5H-Dibenzo[a,d]cyclohepten-5-ylidene)-1-(1,2,3,4-tetrahydro-2-naphthylmethyl)piperidine]?
Answer: Decrease in systolic blood pressure (mmHg) time after administration (hour) 0.5 (dose 10 mg/kg i.v. bolus): −115 mmHg; Decrease in systolic blood pressure (mmHg) time after administration (hour) 4 (dose 10 mg/kg i.v. bolus): −31 mmHg

Question: Which “Decrease in systolic blood pressure … (hour) 0.5” value (dose 1 mg/kg i.v. bolus) does the source give for `CC(=O)Nc1cccc(CCCN2CCC(=C3c4ccccc4C=Cc4ccccc43)CC2)c1.Cl` [Example 316, 1-(3-Acetylaminophenyl)-3-(4-(5H-dibenzo[a,d]cyclohepten-5-ylidene)-1-piperidinyl)propane hydrochloride] here?
Answer: −100 mmHg

Question: And the “Decrease in systolic blood pressure … (hour) 4” value (dose 1 mg/kg i.v. bolus)?
Answer: 8 mmHg

Question: What does the source list for `CC(=O)Nc1ccc(CCCCN2CCC(=C3c4ccccc4C=Cc4ccccc43)CC2)cc1.Cl.Cl` [Example 197]?
Answer: Decrease in systolic blood pressure (mmHg) time after administration (hour) 0.5 (dose 10 mg/kg i.v. bolus): −51 mmHg; Decrease in systolic blood pressure (mmHg) time after administration (hour) 4 (dose 10 mg/kg i.v. bolus): −26 mmHg

Question: For `C1=Cc2ccccc2C(=C2CCN(CCCc3ccccc3)CC2)c2ccccc21.Cl` [Example 14, 3-(4-(5H-Dibenzo[a,d]cyclohepten-5-ylidene)-1-piperidinyl)-1-phenylpropane hydrochloride], which “Decrease in systolic blood pressure … (hour) 0.5” value (dose 10 mg/kg i.v. bolus) is on record?
Answer: −105 mmHg

Question: What about the “Decrease in systolic blood pressure … (hour) 4” value (dose 10 mg/kg i.v. bolus) of the same compound?
Answer: −10 mmHg

Question: What does the source list for `CC(C)(C)C(=O)Nc1ccc(C=CCN2CCC(=C3c4ccccc4C=Cc4ccccc43)CC2)cc1.Cl` [Example 379]?
Answer: Decrease in systolic blood pressure (mmHg) time after administration (hour) 0.5 (dose 1 mg/kg i.v. bolus): −118 mmHg; Decrease in systolic blood pressure (mmHg) time after administration (hour) 4 (dose 1 mg/kg i.v. bolus): −59 mmHg

Question: “2,6-Dimethyl-4-(4-(4-(5H-Dibenzo[a,d]cyclohepten-5-ylidene)-1-piperidinyl)-1-butyl)-5-methylpyrydine-3,5-dicarboxylate dihydrochloride [Example 288]” was tested. Which “Decrease in systolic blood pressure … (hour) 0.5” value (dose 10 mg/kg i.v. bolus) did it give?
Answer: −92 mmHg

Question: What about the “Decrease in systolic blood pressure … (hour) 4” value (dose 10 mg/kg i.v. bolus) of the same compound?
Answer: −14 mmHg

Question: Which results are given for `CCCCCCCCCC(=O)N1CCC(=C2c3ccccc3C=Cc3ccccc32)CC1` [Example 164, 1-Decanolyl-4-(5H-dibenzo[a,d]cyclohepten-5-ylidene)piperidine]?
Answer: Decrease in systolic blood pressure (mmHg) time after administration (hour) 0.5 (dose 10 mg/kg i.v. bolus): −91 mmHg; Decrease in systolic blood pressure (mmHg) time after administration (hour) 4 (dose 10 mg/kg i.v. bolus): −22 mmHg

Question: Which “Decrease in systolic blood pressure … (hour) 0.5” value (dose 10 mg/kg i.v. bolus) does the source give for `CC(CC(=O)N1CCSCC1)N1CCC(=C2c3ccccc3C=Cc3ccccc32)CC1.Cl` (centres unmarked) [Example 246] here?
Answer: −34 mmHg

Question: And the “Decrease in systolic blood pressure … (hour) 4” value (dose 10 mg/kg i.v. bolus)?
Answer: −4 mmHg

Question: With `CCCCCCCCCCN1CCC(=C2c3ccccc3CCc3ccccc32)CC1.Cl` [Example 185, 1-Decyl-4-(10,11-Dihydro-5H-dibenzo[a,d]cyclohepten-5-ylidene)piperidine hydrochloride] as the compound, how does the “Decrease in systolic blood pressure … (hour) 0.5” value (dose 10 mg/kg i.v. bolus) read?
Answer: −66 mmHg

Question: What about the “Decrease in systolic blood pressure … (hour) 4” value (dose 10 mg/kg i.v. bolus) of the same compound?
Answer: −10 mmHg

Question: For `COc1ccc(C(=O)CCN2CCC(=C3c4ccccc4C=Cc4ccccc43)CC2)cc1OC.Cl` [Example 168, 3-(4-(5H-Dibenzo[a,d]cyclohepten-5-ylidene)-1-piperidinyl)-3′,4′-dimethoxypropiophenone hydrochloride], which “Decrease in systolic blood pressure … (hour) 0.5” value (dose 10 mg/kg i.v. bolus) is on record?
Answer: −108 mmHg

Question: And the “Decrease in systolic blood pressure … (hour) 4” value (dose 10 mg/kg i.v. bolus)?
Answer: 0 mmHg

Question: For `COc1ccc(C2(CCCN3CCC(=C4c5ccccc5C=Cc5ccccc54)CC3)OCCO2)cc1OC.Cl` [Example 222], which “Decrease in systolic blood pressure … (hour) 0.5” value (dose 10 mg/kg i.v. bolus) is on record?
Answer: −94 mmHg

Question: And the “Decrease in systolic blood pressure … (hour) 4” value (dose 10 mg/kg i.v. bolus)?
Answer: −5 mmHg

Question: For `C1=Cc2ccccc2C(=C2CCNCC2)c2ccccc21.Cl` [Example 349, 4-(5H-Dibenzo[a,d]cyclohepten-5-ylidene)-1-piperidine hydrochloride], which “Decrease in systolic blood pressure … (hour) 0.5” value (dose 1 mg/kg i.v. bolus) is on record?
Answer: −48 mmHg

Question: And the “Decrease in systolic blood pressure … (hour) 4” value (dose 1 mg/kg i.v. bolus)?
Answer: −43 mmHg

Question: With `CC(=O)N1CCCCC1CCCN1CCC(=C2c3ccccc3C=Cc3ccccc32)CC1.Cl` (centres unmarked) [Example 294, 1-(N-Acetyl-2-piperidinyl)-3-(4-(5H-Dibenzo[a,d]cyclohepten-5-ylidene)-1-piperidinyl)propane hydrochloride] as the compound, how does the “Decrease in systolic blood pressure … (hour) 0.5” value (dose 3 mg/kg i.v. bolus) read?
Answer: −17 mmHg

Question: What about the “Decrease in systolic blood pressure … (hour) 4” value (dose 3 mg/kg i.v. bolus) of the same compound?
Answer: 7 mmHg

Question: For `Cl.O=C(C=Cc1ccccc1)Nc1ccccc1SCCCN1CCC(=C2c3ccccc3C=Cc3ccccc32)CC1` [Example 37, 1-(3-(2-Cinnamoylaminophenylthio)-1-propyl)-4-(5H-dibenzo[a,d]-cyclohepten-5-ylidene)piperidine hydrochloride], which “Decrease in systolic blood pressure … (hour) 0.5” value (dose 10 mg/kg i.v. bolus) is on record?
Answer: −78 mmHg

Question: And the “Decrease in systolic blood pressure … (hour) 4” value (dose 10 mg/kg i.v. bolus)?
Answer: −36 mmHg

Question: With “4-(4-(5H-Dibenzo[a,d]cyclohepten-5-ylidene)-1-piperidinyl)-3′,4′-dimethoxybutyrophenone N-oxide [Example 271]” as the compound, how does the “Decrease in systolic blood pressure … (hour) 0.5” value (dose 10 mg/kg i.v. bolus) read?
Answer: −17 mmHg

Question: And the “Decrease in systolic blood pressure … (hour) 4” value (dose 10 mg/kg i.v. bolus)?
Answer: −13 mmHg

Question: `Cl.O=[N+]([O-])c1ccccc1CCCCN1CCC(=C2c3ccccc3C=Cc3ccccc32)CC1` [Example 255, 4-(4-(5H-Dibenzo[a,d]cyclohepten-5-ylidene)-1-piperidinyl)-1-(2-nitrophenyl)butane hydrochloride] was tested. Which “Decrease in systolic blood pressure … (hour) 0.5” value (dose 10 mg/kg i.v. bolus) did it give?
Answer: −62 mmHg

Question: And the “Decrease in systolic blood pressure … (hour) 4” value (dose 10 mg/kg i.v. bolus)?
Answer: 2 mmHg

Question: Which “Decrease in systolic blood pressure … (hour) 0.5” value (dose 10 mg/kg i.v. bolus) does the source give for `CC(=O)OCC1(CCCCN2CCC(=C3c4ccccc4C=Cc4ccccc43)CC2)CCCCC1.Cl` [Example 273, 1-Acetoxymethyl-1-(4-(4-(5H-dibenzo[a,d]cyclohepten-5-ylidene)-1-piperidinyl)-1-butyl)cyclohexane hydrochloride] here?
Answer: −37 mmHg

Question: And the “Decrease in systolic blood pressure … (hour) 4” value (dose 10 mg/kg i.v. bolus)?
Answer: 5 mmHg
